Measured values taken from patent US12403137B2, “Compounds and methods of use” (Tango Therapeutics, Inc., priority 2019, dated 2025).

Columns and labels:
PRMT5 [1] = target: T1, PRMT5 (Homo sapiens, UniProt O14744); assay: PRMT5 inhibition assay with SAM as cofactor; assay type: biochemical; settings: against PRMT5 in the presence of SAM as cofactor
T1 construct: purchased Viva (custom protein)
Source text: (§1) The Ki values can be calculated from the IC50 values as described in the Examples section. As detailed in the Examples section, for the assay performed in the presence of SAM, IC50=Ki×1.5 (Ki=IC50/1.5). For the assay performed in the presence of MTA, IC50=Ki×13.5 (Ki=IC50/13.5). Column 6 indicates the ratio between the Ki of compounds in the presence of SAM and the Ki of compounds in the presence of MTA

PRMT5 [2] = target: T1, PRMT5; assay: PRMT5 inhibition assay with no cofactor; assay type: biochemical; settings: against PRMT5 with no cofactor; read-out: No Co-factor IC50
PRMT5 [3] = target: T1, PRMT5; assay: PRMT5 inhibition assay with MTA as cofactor; assay type: biochemical; settings: for IC50: against PRMT5 with MTA as cofactor; for SAM/MTA Ratio: ratio of Ki in the presence of SAM to Ki in the presence of MTA, Ki=IC50/1.5 (SAM), Ki=IC50/13.5 (MTA)
Source text: as §1

[4] = system: HAP1 MTAP-intact cell line; assay: SDMA in-cell western assay, HAP1 MTAP-intact; assay type: cell-based; settings: Homo sapiens
Method in brief: (§2)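 Symmetric dimethylarginine (SDMA) levels were measured by in-cell western in an isogenic HAP1 pair. One line expresses endogenous MTAP and the other is MTAP-null, with an IC50 derived in each.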

[5] = system: HAP1 MTAP-deleted cell line; assay: SDMA in-cell western assay, HAP1 MTAP-deleted; assay type: cell-based; settings: for IC50: Homo sapiens, HAP1 MTAP-deleted (MTAP-null) cell line; for MTAP Intact/Deleted Ratio: IC50 ratio HAP1 MTAP-intact / HAP1 MTAP-deleted, >=3 fold considered MTAP-selective
Method in brief: as §2

T1 sequence (O14744 whole entry): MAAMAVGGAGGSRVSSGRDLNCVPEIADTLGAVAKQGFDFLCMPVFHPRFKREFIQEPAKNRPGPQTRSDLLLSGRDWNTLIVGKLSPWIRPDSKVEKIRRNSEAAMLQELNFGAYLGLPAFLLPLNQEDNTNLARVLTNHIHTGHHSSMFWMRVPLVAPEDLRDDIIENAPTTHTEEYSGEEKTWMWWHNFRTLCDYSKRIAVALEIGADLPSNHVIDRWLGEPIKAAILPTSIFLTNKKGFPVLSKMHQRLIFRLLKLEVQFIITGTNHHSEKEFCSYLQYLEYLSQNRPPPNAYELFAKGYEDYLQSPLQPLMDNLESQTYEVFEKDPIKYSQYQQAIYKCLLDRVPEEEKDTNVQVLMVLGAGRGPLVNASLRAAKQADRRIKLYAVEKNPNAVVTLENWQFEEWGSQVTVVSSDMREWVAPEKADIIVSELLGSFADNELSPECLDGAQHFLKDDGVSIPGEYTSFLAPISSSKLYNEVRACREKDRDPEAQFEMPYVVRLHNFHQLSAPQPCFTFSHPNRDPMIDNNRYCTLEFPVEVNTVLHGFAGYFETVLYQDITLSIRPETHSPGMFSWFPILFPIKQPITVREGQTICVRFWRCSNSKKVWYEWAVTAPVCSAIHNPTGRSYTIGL
T1 sequence (Q9BQA1 whole entry partner): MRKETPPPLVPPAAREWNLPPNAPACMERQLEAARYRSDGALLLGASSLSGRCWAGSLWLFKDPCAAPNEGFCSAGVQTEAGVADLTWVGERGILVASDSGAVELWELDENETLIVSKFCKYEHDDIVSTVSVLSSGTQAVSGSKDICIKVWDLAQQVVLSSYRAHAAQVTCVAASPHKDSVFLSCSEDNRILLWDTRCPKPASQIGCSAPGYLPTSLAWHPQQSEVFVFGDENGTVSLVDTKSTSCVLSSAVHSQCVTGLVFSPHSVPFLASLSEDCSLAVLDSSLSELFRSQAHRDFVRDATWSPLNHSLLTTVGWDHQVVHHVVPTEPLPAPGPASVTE

Row | IC50 (PRMT5 [1]) [nM] | IC50 (PRMT5 [2]) [nM] | IC50 (PRMT5 [3]) [nM] | IC50 [4] [µM] | IC50 [5] [nM] | Compound | SAM/MTA Ratio (PRMT5 [3]) | MTAP Intact/Deleted Ratio [5]
1 | 50 to 500 | 50 to 500 | < 50 | ≥ 10 | < 1000 | CC(=O)N1CC(Nc2cc(C(=O)NC[C@@H](O)[C@@H]3Cc4ccc(OCc5ocnc5C)cc4CN3)cc(N3CCCCC3)n2)C1 [Compound 45, 2-[(1-acetylazetidin-3-yl)amino]-N-[(2R)-2-hydroxy-2-[(3S)-7-[(4-methyloxazol-5-yl)methoxy]-1,2,3,4-tetrahydroisoquinolin-3-yl]ethyl]-6-(1-piperidyl)pyridine-4-carboxamide] | A (a Ki ratio greater than or equal to 10 fold between the Ki in the presence of SAM and the Ki in the presence of MTA) | A* (an IC50 ratio greater than or equal to 10 fold between the IC50 in the HAP1 MTAP-intact cell line and the HAP1 MTAP-deleted cell line)
2 | 50 to 500 | 50 to 500 | < 50 | < 1 | < 1000 | COc1cc(C(=O)NC[C@@H](O)[C@@H]2Cc3ccc(OCc4ocnc4C)cc3CN2)cc(NC2CCC2)n1 [Compound 26, 2-(cyclobutylamino)-N—((R)-2-hydroxy-2-((S)-7-((4-methyloxazol-5-yl)methoxy)-1,2,3,4-tetrahydroisoquinolin-3-yl)ethyl)-6-methoxyisonicotinamide] | A (a Ki ratio greater than or equal to 10 fold between the Ki in the presence of SAM and the Ki in the presence of MTA) | C* (an IC50 ratio of less than 3 fold between the IC50 in the HAP1 MTAP-intact cell line and the HAP1 MTAP-deleted cell line)
3 | 50 to 500 | 50 to 500 | 50 to 500 | ≥ 10 | ≥ 10000 | CC(=O)N1CC(Nc2cc(C(=O)NC[C@@H](O)[C@@H]3Cc4ccc(OCc5ocnc5C)cc4CN3)cc(N3CCCCC3)c2)C1 [Compound 59, 3-[(1-acetylazetidin-3-yl)amino]-N-[(2R)-2-hydroxy-2-[(3S)-7-[(4-methyloxazol-5-yl)methoxy]-1,2,3,4-tetrahydroisoquinolin-3-yl]ethyl]-5-(1-piperidyl)benzamide] | A (a Ki ratio greater than or equal to 10 fold between the Ki in the presence of SAM and the Ki in the presence of MTA) | C* (an IC50 ratio of less than 3 fold between the IC50 in the HAP1 MTAP-intact cell line and the HAP1 MTAP-deleted cell line)
4 | 50 to 500 | ≥ 5000 | 50 to 500 | ≥ 10 | 1000 to 10000 | Cc1ncoc1COc1ccc2c(c1)CN[C@H]([C@H](O)CNC(=O)c1cccc(-c3ccccn3)c1)C2 [Compound 25, N—((R)-2-hydroxy-2-((S)-7-((4-methyloxazol-5-yl)methoxy)-1,2,3,4-tetrahydroisoquinolin-3-yl)ethyl)-3-(pyridin-2-yl)benzamide] | A (a Ki ratio greater than or equal to 10 fold between the Ki in the presence of SAM and the Ki in the presence of MTA) | C* (an IC50 ratio of less than 3 fold between the IC50 in the HAP1 MTAP-intact cell line and the HAP1 MTAP-deleted cell line)
5 | 50 to 500 | 500 to 5000 | 50 to 500 | ≥ 10 | 1000 to 10000 | Cc1ncoc1COc1ccc2c(c1)CN[C@H]([C@H](O)CNC(=O)c1ccc(C(=O)N3CCOCC3)cc1)C2 [Compound 3, N—((R)-2-hydroxy-2-((S)-7-((4-methyloxazol-5-yl)methoxy)-1,2,3,4-tetrahydroisoquinolin-3-yl)ethyl)-4-(morpholine-4-carbonyl)benzamide] | A (a Ki ratio greater than or equal to 10 fold between the Ki in the presence of SAM and the Ki in the presence of MTA) | C* (an IC50 ratio of less than 3 fold between the IC50 in the HAP1 MTAP-intact cell line and the HAP1 MTAP-deleted cell line)
6 | 50 to 500 | 50 to 500 | 50 to 500 | < 1 | < 1000 | Cc1ncoc1COc1ccc2c(c1)CN[C@H]([C@H](O)CNC(=O)c1cc(NC3CCC3)nc(N3CCCCC3)c1)C2 [Compound 31, 2-(cyclobutylamino)-N—((R)-2-hydroxy-2-((S)-7-((4-methyloxazol-5-yl)methoxy)-1,2,3,4-tetrahydroisoquinolin-3-yl)ethyl)-6-(piperidin-1-yl)isonicotinamide] | A (a Ki ratio greater than or equal to 10 fold between the Ki in the presence of SAM and the Ki in the presence of MTA) | C* (an IC50 ratio of less than 3 fold between the IC50 in the HAP1 MTAP-intact cell line and the HAP1 MTAP-deleted cell line)

Row | Compound | IC50 (PRMT5 [1]) [nM] | IC50 (PRMT5 [2]) [nM] | IC50 (PRMT5 [3]) [nM] | IC50 [4] [µM] | IC50 [5] [nM] | SAM/MTA Ratio (PRMT5 [3]) | MTAP Intact/Deleted Ratio [5]
7 | CCOc1cc(C(=O)N2C3CCC2COC3)ccc1C(=O)NC[C@@H](O)[C@@H]1Cc2ccc(OCc3cnco3)cc2CN1 [Compound 11, 4-(3-oxa-8-azabicyclo[3.2.1]octane-8-carbonyl)-2-ethoxy-N—((R)-2-hydroxy-2-((S)-7-(oxazol-5-ylmethoxy)-1,2,3,4-tetrahydroisoquinolin-3-yl)ethyl)benzamide] | 50 to 500 | 500 to 5000 | 50 to 500 | 1 to 10 | < 1000 | A (a Ki ratio greater than or equal to 10 fold between the Ki in the presence of SAM and the Ki in the presence of MTA) | B* (an IC50 ratio greater than or equal to 3 fold but lower than 10 fold between the IC50 in the HAP1 MTAP-intact cell line and the HAP1 MTAP-deleted cell line)
